Columns and labels:
[1] = system: barnyardgrass (Echinochloa crus-galli); experiment: Test A preemergence, visual injury rating 0-100 (0 no effect, 100 complete control); assay type: in vivo
[2] = system: ragweed (common ragweed, Ambrosia elatior); experiment: Test A preemergence, visual injury rating 0-100; assay type: in vivo
[3] = system: pigweed (Amaranthus retroflexus); experiment: Test A preemergence, visual injury rating 0-100; assay type: in vivo
[4] = system: foxtail, giant (giant foxtail, Setaria faberii); experiment: Test A preemergence, visual injury rating 0-100; assay type: in vivo
kochia (Kochia scoparia) [5] = experiment: Test A preemergence, visual injury rating 0-100; assay type: in vivo
[6] = system: ryegrass, Italian (Italian ryegrass, Lolium multiflorum); experiment: Test A preemergence, visual injury rating 0-100; assay type: in vivo
[7] = system: barnyardgrass (Echinochloa crus-galli); experiment: Test B flooded paddy test, visual rating 0-100; details: Flood, 250 g ai/ha, applied to paddy water, rated after 13 to 15 days
rice (Oryza sativa) = experiment: Test B flooded paddy test, visual rating 0-100 (0 no effect, 100 complete control); details: Flood, 250 g ai/ha, applied to paddy water, rated after 13 to 15 days
[8] = system: galium (catchweed bedstraw, Galium aparine); experiment: Test A postemergence, visual injury rating 0-100; assay type: in vivo; details: 0 to 100 scale
[9] = system: ragweed (common ragweed, Ambrosia elatior); experiment: Test A postemergence, visual injury rating 0-100; assay type: in vivo; details: 0 to 100 scale
corn (Zea mays) = experiment: Test A postemergence, visual injury rating 0-100; assay type: in vivo; details: 0 to 100 scale
[10] = system: pigweed (Amaranthus retroflexus); experiment: Test A postemergence, visual injury rating 0-100; assay type: in vivo; details: 0 to 100 scale
[11] = system: foxtail, giant (giant foxtail, Setaria faberii); experiment: Test A postemergence, visual injury rating 0-100; assay type: in vivo; details: 0 to 100 scale
kochia (Kochia scoparia) [12] = experiment: Test A postemergence, visual injury rating 0-100; assay type: in vivo; details: 0 to 100 scale
[13] = system: barnyardgrass (Echinochloa crus-galli); experiment: Test A postemergence, visual injury rating 0-100; assay type: in vivo; details: 0 to 100 scale
[14] = system: ryegrass, Italian (Italian ryegrass, Lolium multiflorum); experiment: Test A postemergence, visual injury rating 0-100; assay type: in vivo; details: 0 to 100 scale
[15] = system: wheat (Triticum aestivum); experiment: Test A postemergence, visual injury rating 0-100; assay type: in vivo; details: 0 to 100 scale
[16] = system: blackgrass (Alopecurus myosuroides); experiment: Test A postemergence, visual injury rating 0-100; assay type: in vivo; details: 0 to 100 scale
[17] = system: ducksalad (Heteranthera limosa); experiment: Test B flooded paddy test, visual rating 0-100; details: Flood, 250 g ai/ha, applied to paddy water, rated after 13 to 15 days

Compound	Barnyardgrass plant response rating (0 to 100 scale) ([1]; 125 g ai/ha)	Barnyardgrass plant response rating (0 to 100 scale) ([1]; 500 g ai/ha)	Ragweed plant response rating (0 to 100 scale) ([2]; 125 g ai/ha)	Ragweed plant response rating (0 to 100 scale) ([2]; 500 g ai/ha)	Pigweed plant response rating (0 to 100 scale) ([3]; 125 g ai/ha)	Pigweed plant response rating (0 to 100 scale) ([3]; 500 g ai/ha)	Foxtail, Giant plant response rating (0 to 100 scale) ([4]; 125 g ai/ha)	Foxtail, Giant plant response rating (0 to 100 scale) ([4]; 500 g ai/ha)	Kochia plant response rating (0 to 100 scale) (kochia (Kochia scoparia) [5]; 125 g ai/ha)	Kochia plant response rating (0 to 100 scale) (kochia (Kochia scoparia) [5]; 500 g ai/ha)	Ryegrass, Italian plant response rating (0 to 100 scale) ([6]; 125 g ai/ha)	Ryegrass, Italian plant response rating (0 to 100 scale) ([6]; 500 g ai/ha)	Barnyardgrass plant response rating (0 to 100 scale) [7]	Rice plant response rating (0 to 100 scale) (rice (Oryza sativa))	Galium plant response rating ([8]; 125 g ai/ha)	Galium plant response rating ([8]; 500 g ai/ha)	Ragweed plant response rating ([9]; 125 g ai/ha)	Ragweed plant response rating ([9]; 500 g ai/ha)	Corn plant response rating (corn (Zea mays); 125 g ai/ha)	Corn plant response rating (corn (Zea mays); 500 g ai/ha)	further results
CC1=[N+]([O-])C(C(=O)Nc2cccc(F)c2F)C(c2cccc(C(F)(F)F)n2)C1 (stereo not shown) [Compound 90]	90	90	0	0	0	0	50	90	0	60	0	0	15	0	20	20	0	0	0	0	Pigweed plant response rating ([10]; 125 g ai/ha): 0; Pigweed plant response rating ([10]; 500 g ai/ha): 0; Foxtail, Giant plant response rating ([11]; 125 g ai/ha): 20; Foxtail, Giant plant response rating ([11]; 500 g ai/ha): 90; Kochia plant response rating (kochia (Kochia scoparia) [12]; 125 g ai/ha): 0; Kochia plant response rating (kochia (Kochia scoparia) [12]; 500 g ai/ha): 0; Barnyardgrass plant response rating ([13]; 125 g ai/ha): 10; Barnyardgrass plant response rating ([13]; 500 g ai/ha): 80; Ryegrass, Italian plant response rating ([14]; 125 g ai/ha): 0; Ryegrass, Italian plant response rating ([14]; 500 g ai/ha): 0; Wheat plant response rating ([15]; 125 g ai/ha): 0; Wheat plant response rating ([15]; 500 g ai/ha): 0; Blackgrass plant response rating ([16]; 125 g ai/ha): 30; Blackgrass plant response rating ([16]; 500 g ai/ha): 50; Ducksalad plant response rating (0 to 100 scale) [17]: 90
COc1cc(C)cc(C2CC(C)=[N+]([O-])C2C(=O)Nc2cccc(F)c2F)c1 (stereo not shown) [Compound 91]	90	90	20	70	0	60	90	90	0	60	80	90	65	0	0	30	0	30	20	70	Pigweed plant response rating ([10]; 125 g ai/ha): 0; Pigweed plant response rating ([10]; 500 g ai/ha): 30; Foxtail, Giant plant response rating ([11]; 125 g ai/ha): 70; Foxtail, Giant plant response rating ([11]; 500 g ai/ha): 90; Kochia plant response rating (kochia (Kochia scoparia) [12]; 125 g ai/ha): 0; Kochia plant response rating (kochia (Kochia scoparia) [12]; 500 g ai/ha): 30; Barnyardgrass plant response rating ([13]; 125 g ai/ha): 70; Barnyardgrass plant response rating ([13]; 500 g ai/ha): 90; Ryegrass, Italian plant response rating ([14]; 125 g ai/ha): 50; Ryegrass, Italian plant response rating ([14]; 500 g ai/ha): 50; Wheat plant response rating ([15]; 125 g ai/ha): 20; Wheat plant response rating ([15]; 500 g ai/ha): 50; Blackgrass plant response rating ([16]; 125 g ai/ha): 60; Blackgrass plant response rating ([16]; 500 g ai/ha): 80; Ducksalad plant response rating (0 to 100 scale) [17]: 55
CC1=[N+]([O-])C(C(=O)Nc2cccc(F)c2F)C(c2cc(C)cc(C(F)(F)F)c2)C1 (stereo not shown) [Compound 92]	90	90	0	70	30	80	90	90	0	50	80	90	70	0	50	60	0	70	70	80	Pigweed plant response rating ([10]; 125 g ai/ha): 20; Pigweed plant response rating ([10]; 500 g ai/ha): 60; Foxtail, Giant plant response rating ([11]; 125 g ai/ha): 70; Foxtail, Giant plant response rating ([11]; 500 g ai/ha): 90; Kochia plant response rating (kochia (Kochia scoparia) [12]; 125 g ai/ha): 30; Kochia plant response rating (kochia (Kochia scoparia) [12]; 500 g ai/ha): 70; Barnyardgrass plant response rating ([13]; 125 g ai/ha): 70; Barnyardgrass plant response rating ([13]; 500 g ai/ha): 90; Ryegrass, Italian plant response rating ([14]; 125 g ai/ha): 60; Ryegrass, Italian plant response rating ([14]; 500 g ai/ha): 70; Wheat plant response rating ([15]; 125 g ai/ha): 70; Wheat plant response rating ([15]; 500 g ai/ha): 80; Blackgrass plant response rating ([16]; 125 g ai/ha): 70; Blackgrass plant response rating ([16]; 500 g ai/ha): 70; Ducksalad plant response rating (0 to 100 scale) [17]: 25
CC1=[N+]([O-])C(C(=O)Nc2cccc(F)c2F)C(c2cc(C)cc(Cl)c2)C1 (stereo not shown) [Compound 94]	90	90	30	90	20	80	90	90	10	60	60	80	60	0	20	60	20	70	70	80	Pigweed plant response rating ([10]; 125 g ai/ha): 20; Pigweed plant response rating ([10]; 500 g ai/ha): 70; Foxtail, Giant plant response rating ([11]; 125 g ai/ha): 80; Foxtail, Giant plant response rating ([11]; 500 g ai/ha): 90; Kochia plant response rating (kochia (Kochia scoparia) [12]; 125 g ai/ha): 20; Kochia plant response rating (kochia (Kochia scoparia) [12]; 500 g ai/ha): 30; Barnyardgrass plant response rating ([13]; 125 g ai/ha): 80; Barnyardgrass plant response rating ([13]; 500 g ai/ha): 90; Ryegrass, Italian plant response rating ([14]; 125 g ai/ha): 60; Ryegrass, Italian plant response rating ([14]; 500 g ai/ha): 90; Wheat plant response rating ([15]; 125 g ai/ha): 40; Wheat plant response rating ([15]; 500 g ai/ha): 80; Blackgrass plant response rating ([16]; 125 g ai/ha): 70; Blackgrass plant response rating ([16]; 500 g ai/ha): 90; Ducksalad plant response rating (0 to 100 scale) [17]: 100
CC1=[N+]([O-])C(C(=O)Nc2cccc(F)c2F)C(c2cc(F)c(F)c(F)c2)C1 (stereo not shown) [Compound 95]	90	90	20	80	20	80	90	100	0	70	30	90	80	0	0	50	0	20	0	50	Pigweed plant response rating ([10]; 125 g ai/ha): 0; Pigweed plant response rating ([10]; 500 g ai/ha): 20; Foxtail, Giant plant response rating ([11]; 125 g ai/ha): 80; Foxtail, Giant plant response rating ([11]; 500 g ai/ha): 90; Kochia plant response rating (kochia (Kochia scoparia) [12]; 125 g ai/ha): 30; Kochia plant response rating (kochia (Kochia scoparia) [12]; 500 g ai/ha): 50; Barnyardgrass plant response rating ([13]; 125 g ai/ha): 70; Barnyardgrass plant response rating ([13]; 500 g ai/ha): 80; Ryegrass, Italian plant response rating ([14]; 125 g ai/ha): 40; Ryegrass, Italian plant response rating ([14]; 500 g ai/ha): 70; Wheat plant response rating ([15]; 125 g ai/ha): 10; Wheat plant response rating ([15]; 500 g ai/ha): 60; Blackgrass plant response rating ([16]; 125 g ai/ha): 60; Blackgrass plant response rating ([16]; 500 g ai/ha): 70; Ducksalad plant response rating (0 to 100 scale) [17]: 100

From patent US11498899B2, “Nitrone herbicides” (FMC Corporation, priority 2016, dated 2022)
